Usually EC50 stands for the concentration at which the effect is half-maximal. One may read the IC50 as the point on the concentration scale where inhibition reaches its midpoint. Lower therefore signals greater potency in that assay.

From PubChem BioAssay AID179 (DTP/NCI, 2004) come the findings set out here.

Active and inactive are the calls of the source.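 Rule for the calls: active = compounds giving half or more protection of infected cells from virus-caused growth loss, again on retest; inactive = the rest.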

For this assay, the system named is CEM cells HIV-1 protection, formazan growth assay. Put plainly: NCI AIDS Antiviral Assay. Conditions: for IC50: measured here: growth of uninfected CEM cells. In a few lines: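 Category rules: moderately active means at least 50% protection on retest, and confirmed active means 100% protection reproducibly. The underlying data came from a formazan growth assay in HIV-1-infected CEM cells.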

For the compound `N#Cc1ccc(N=NN2CCCC2)cc1`, the EC50 is more than 200 µM and the IC50 was determined as 17.8 µM.

On to `O=S(=O)([O-])[O-].O=c1[nH]cnc2[nH]ncc12.O=c1[nH]cnc2[nH]ncc12.[Cu+2]`, for which the EC50 was more than 83.2 µM and the IC50 was found to be 52.5 µM.

Regarding `CC1=CC2C(=O)N(c3ccccc3)C(=O)C2CC1n1[nH]c(=O)n(Cc2ccccc2)c1=O` (stereo unspecified), the EC50 was more than 302 µM and the IC50 is more than 302 µM.

Turning to `CC(=O)n1c(O)c(N=Nc2ccccc2[N+](=O)[O-])c2ccccc21`, the EC50 was more than 200 µM and the IC50 was more than 200 µM.

Consider `COP(=O)(OC)/C(C#N)=C/c1ccoc1`, for which the EC50 is more than 1100 µM and the IC50 was more than 1100 µM.

Regarding `COc1cc(O)c2c(=O)c3c(C)cccc3n(C)c2c1`, the EC50 is more than 200 µM and the IC50 came out at 72.4 µM.

As for `COC1=CC(=O)C(=O)c2ccc(C)nc21`, the outcome was inactive.

Regarding `N#Cc1c2c(c(N3CCOCC3)n3c1nc1ccccc13)CCCC2`, the EC50 was more than 200 µM and the IC50 was 8.32 µM.

In the case of `Clc1ccc(CNCCCNCc2ccc(Cl)c(Cl)c2)cc1Cl`, the EC50 is more than 200 µM and the IC50 was 15.8 µM.

For `COc1cc(/C=C2\CCC(C)C3C2=NN(C(C)=O)C3c2cc(OC)c(OC)c(OC)c2)cc(OC)c1OC` (stereo unspecified), the EC50 is more than 100 µM and the IC50 is more than 100 µM.

As for `O=S1(=O)CS(=O)(=O)CS(=O)(=O)C1`, the EC50 was more than 200 µM and the IC50 worked out at 89.1 µM.

With `Oc1ccc(S)cc1CNc1ccccc1`, the EC50 was more than 200 µM and the IC50 was found to be 22.4 µM.

In the case of `Cc1cc(Cl)cc2c1NC(=O)C2(O)CC(=O)c1ccco1` (stereo unspecified), the EC50 was more than 117 µM and the IC50 worked out at 63.1 µM.

On to `O=C(NNC(=S)NC1CCCCC1)c1csc(NC(=S)NC2CCCCC2)n1`, for which the EC50 is more than 20 µM and the IC50 is 1.86 µM.

As for `C/C(=N\NC(=O)CC#N)C(CN1CCCCC1)C(c1ccccc1)c1c(O)c2ccccc2oc1=O` (stereo unspecified), the EC50 was more than 70.8 µM and the IC50 came out at 40.7 µM.

On to `O=C(O)CSc1cc2c3ccccc3sc2c2ccccc12`, for which the EC50 was more than 6.17 µM and the IC50 is more than 6.17 µM.

As to `O=c1cn[nH]c2c(Br)cc(Br)cc12`, the EC50 is more than 70.8 µM and the IC50 was more than 70.8 µM.

Take `O=S(O)c1cc(Cl)cc(Cl)c1OCc1ccccc1`: the result was inactive.

As to `CCN(CC)CC(C)C(O)(c1ccc(Cl)cc1)C1CCCCC1` (stereo unspecified), the EC50 was more than 200 µM and the IC50 came to 13.2 µM.

As for `N#Cc1nc(C2CCC2)oc1N`, the EC50 is more than 200 µM and the IC50 is more than 200 µM.

Consider `COc1ccc2c(O)c(S(=O)(=O)c3ccc(C)cc3)c(=O)oc2c1OC`, for which the EC50 is more than 100 µM and the IC50 is more than 100 µM.

As to `CCO/C=C/C(C)C1(C(=O)OCC)CCCCC1=O` (stereo unspecified), the EC50 is more than 97.7 µM and the IC50 was more than 97.7 µM.

In the case of `CCOC(=O)[C@@H]1CCN2CN(c3ccc(OC)cc3)N=C(c3ccccc3)[C@@]12c1ccccc1`, the EC50 was more than 200 µM and the IC50 was 18.2 µM.

Take `O=C1CCC[C@]2(CCC[C@@H](O)C2)N1`: the EC50 is more than 200 µM and the IC50 is more than 200 µM.

Regarding `N=c1c2c3n(c4c(=O)n(-c5ccccc5)c(=S)n(c(=O)n1-c1ccccc1)c24)CCCCC3`, the EC50 is more than 100 µM and the IC50 was more than 100 µM.

In the case of `NCCC(O)C(=O)NC1CC(N)C(OC2OC(CN)C(O)C(O)C2O)C(O)C1OC1OC(CO)C(O)C(N)C1O` (stereo unspecified), the result was inactive.

`CC(C)CCC[C@@H](C)[C@H]1CC[C@H]2[C@@H]3CC=C4CC(OC(=O)OC5CCC6(C)CC7C=CC6(OO7)C5(C)C)CC[C@]4(C)[C@H]3CC[C@]12C` (stereo partly specified): the EC50 was more than 100 µM and the IC50 was more than 100 µM.

With `CNc1ncc2nc(C)c(=O)n(C)c2n1`, the EC50 was more than 200 µM and the IC50 was more than 200 µM.

As for `[N-]=[N+]=C1C(=O)NC(=O)N2C3OC(CO[C@@H]12)C(O)C3O` (stereo partly specified), the EC50 is more than 200 µM and the IC50 was more than 200 µM.

Turning to `Clc1ccc(-c2nn3c(C45CC6CC(CC(C6)C4)C5)nnc3s2)cc1`, the EC50 was more than 200 µM and the IC50 is more than 200 µM.

Take `O=C1/C(=N\[O-])C(S(=O)(=O)[O-])=Cc2cc(S(=O)(=O)[O-])cc(O)c21.O=C1/C(=N\[O-])C(S(=O)(=O)[O-])=Cc2cc(S(=O)(=O)[O-])cc(O)c21.[Cu+2]`: the EC50 was more than 200 µM and the IC50 came to 123 µM.

For `O=C1N(c2ccccc2)C(=O)C2(SC=NN2Cc2ccccc2)N1c1ccccc1` (stereo unspecified), the result was inactive.

As to `CN1CCC2(CC1)C(=O)N(NC(N)=O)C(=O)C2c1ccccc1` (stereo unspecified), the EC50 is more than 200 µM and the IC50 was more than 200 µM.

`CO/N=C(\C)CCC#Cc1ccccc1C(=O)OC`: the EC50 was more than 200 µM and the IC50 was more than 200 µM.

Regarding `CC1(C)S[C@H](CN)N[C@H]1C(=O)OC(c1ccccc1)c1ccccc1`, the EC50 is more than 200 µM and the IC50 was 60.3 µM.

For `CC(C)OC(=O)Nc1c([N+](=O)[O-])cc(C(F)(F)F)cc1[N+](=O)[O-]`, the outcome was inactive.

Regarding `O=C(O)[C@@H]1CSC(c2ccccc2F)N1` (stereo partly specified), the EC50 is more than 200 µM and the IC50 is more than 200 µM.

In the case of `O=C1c2cc3c(cc2CC12Cc1cc4c(cc1C2)CCC4)CCC3`, the EC50 was more than 200 µM and the IC50 is more than 200 µM.

`O=[N+]([O-])c1ccc(-n2nc3ccc4nonc4c3n2)cc1`: the EC50 was more than 200 µM and the half-maximal inhibitory concentration (IC50) is more than 200 µM.

Turning to `NC1C(O)C(O)C(O)C(O)C1O` (stereo unspecified), the EC50 is more than 7240 µM and the IC50 was more than 7240 µM.

As for `C=CCOc1cc(NC(=S)c2ccoc2C)ccc1OC`, the EC50 is 0.141 µM and the IC50 was determined as 117 µM.

Take `COc1ccccc1C=C1C(=O)NC(=O)NC1=O`: the EC50 was more than 145 µM and the IC50 was more than 145 µM.

In the case of `COc1cc2c3c(c1)[nH]c(=S)n3C(=O)CS2`, the EC50 was more than 28.8 µM and the IC50 is more than 28.8 µM.

Regarding `O=S(=O)(O)c1ccc2c(N=Nc3cccc4ccccc34)c(O)c(S(=O)(=O)O)cc2c1`, the result was inactive.

Consider `N=C(N)SCc1ccc(Cl)cc1Cl` (tested in a mixture with another compound), for which the EC50 was more than 100 µM and the IC50 amounted to 60.3 µM.

For the compound `O=C1c2cc3ccccc3cc2C2(c3ccc(Cl)cc3)NCCN12` (stereo unspecified), the EC50 is more than 200 µM and the IC50 worked out at 32.4 µM.

Regarding `CCOC1NC(/N=C/c2ccc(OC)cc2)=C(C#N)C1C#N` (stereo unspecified), the EC50 is more than 200 µM and the IC50 turned out to be 24.5 µM.

For `C=C(CCCO)[C@@H]1CC[C@](C)(O)[C@H]1C`, the outcome was inactive.

With `CCOc1cnc([C@H]2CCC3[C@@H]4CC=C5C[C@@H](OC(=O)CCC(=O)O)CC[C@]5(C)C4CC[C@@]32C)s1` (stereo partly specified), the EC50 is more than 50.1 µM and the IC50 was 32.4 µM.

Regarding `CN(C)c1cccc2c(S(=O)(=O)NCCCCCCCCCCCCNS(=O)(=O)c3cccc4c(N(C)C)cccc34)cccc12`, the EC50 is more than 200 µM.

With `CCOC(=O)C12C3C(=O)N(CC)C(=O)C3ON1OC1C(=O)N(CC)C(=O)C12` (stereo unspecified), the EC50 is more than 661 µM and the IC50 stood at 81.3 µM.

On to `C=C1C(=O)OC(CCCCCCCCCCCCC)C1C(=O)O` (stereo unspecified), for which the EC50 was more than 3.24 µM and the 50% inhibitory concentration (IC50) is more than 3.24 µM.

Regarding `CC(C)C1=CC2=C(C(=O)C1=O)C13CCCC(C)(C)C1CC2OC3=O` (stereo unspecified), the EC50 was more than 79.4 µM and the IC50 came out at 28.2 µM.

With `COc1ccc(N=C/C=C/c2ccccc2)cc1`, the EC50 is more than 21.9 µM and the IC50 is more than 21.9 µM.

As for `CN(C)C1C(=O)C(C(=O)NCNC(CCS(C)=O)C(=O)O)=C(O)C2(O)C(=O)C3=C(O)c4c(O)cccc4C(C)(O)C3CC12` (stereo unspecified), the EC50 is more than 204 µM and the IC50 is more than 100 µM.

For the compound `CCCC(CCC(=O)O)(CCC(=O)O)[N+](=O)[O-]`, the result was inactive.

In the case of `O=[N+]([O-])Cc1cnc2nncn2n1`, the result was inactive.

As for `CCOC(=O)c1cccc([N+](=O)[O-])c1N`, the EC50 is more than 200 µM and the IC50 is more than 200 µM.

Consider `CCN(CC)c1ccc2cc(-c3nc4ccccc4s3)c(=O)oc2c1`, for which the EC50 was more than 20.4 µM and the IC50 is more than 20.4 µM.

Consider `[Cl][Pd][Cl].[NH-]CCN1CC1`, for which the EC50 was more than 200 µM and the IC50 came to 12.3 µM.

Turning to `O=NN1C(c2ccccc2)C2CCCC(C2=O)C1c1ccccc1` (stereo unspecified), the EC50 is more than 58.9 µM and the IC50 is more than 58.9 µM.

For the compound `c1ccc2c3c([nH]c2c1)[C@@H]1CCN2CCC[C@@H]2N1CC3`, the EC50 is more than 200 µM and the IC50 was found to be 97.7 µM.

As to `CN(C)C(=O)NC1(N(C)C)CC1`, the EC50 is more than 200 µM and the IC50 is more than 200 µM.

As to `C=CCNC(=O)CN(CC(=O)O)C1CCCCC1N(CC(=O)O)CC(=O)O` (stereo unspecified), the EC50 was more than 200 µM and the IC50 was more than 200 µM.

In the case of `CCOC(=O)c1[nH]c2nc(SC)nc(Nc3ccccc3Cl)c2c1N`, the EC50 is more than 200 µM and the IC50 was found to be 126 µM.

With `Nc1ccc2cc(S(=O)(=O)O)cc(O)c2c1N=Nc1ccc(NC(=O)Nc2ccc(N=Nc3c(N)ccc4cc(S(=O)(=O)O)cc(O)c34)c(S(=O)(=O)O)c2)cc1S(=O)(=O)O`, the EC50 was determined as 55 µM and the IC50 was more than 200 µM.

`CCOc1ccc(NC(=O)CCc2nnc(SC)o2)cc1`: the EC50 is more than 162 µM and the IC50 is more than 162 µM.

On to `O=C1c2c(Br)sc(Br)c2[C@@H](NC(=O)C(F)(F)F)C1Br` (stereo partly specified), for which the EC50 was more than 200 µM and the IC50 stood at 3.8 µM.

For `O=[N+]([O-])c1cc(NN=C(c2ccccc2)c2ccccc2)cc([N+](=O)[O-])c1`, the EC50 is more than 3.98 µM and the IC50 was more than 3.98 µM.

For the compound `C#Cc1ccccc1C(=O)OC`, the EC50 was more than 251 µM and the IC50 was more than 251 µM.

As for `CNC(=O)NCCCCC(NC(=O)OCc1ccccc1)C(=O)OCc1ccccc1` (stereo unspecified), the EC50 is more than 83.2 µM and the IC50 came out at 60.3 µM.

In the case of `COc1cc(OC)c(OC)cc1/C=C\c1nccc2ccccc12`, the EC50 was more than 30.9 µM and the IC50 stood at 22.4 µM.

Consider `O=S(Nc1ccccc1)c1ccc(-c2ccccc2)cc1` (stereo unspecified), for which the EC50 was more than 200 µM and the IC50 is more than 200 µM.
